# Source: PubChem BioAssay AID624129 (Sanford-Burnham Center for Chemical Genomics, 2012)
# Activity calls are given as the source filed them. No rule for the calls is given here.
# Assays:
# Assay in all cases: CXCR6 receptor antagonists, dose response, cell-based, beta-arrestin, DiscoveRx, APJ panel, uHTS hits (AID 624129)
# [1] = molecular target: Apelin receptor (Homo sapiens) (UniProt P35414); conditions: CXCR6 beta-arrestin (DiscoveRx) antagonist cell assay, APJ
# [2] = molecular target: Beta-galactosidase (Escherichia coli) (UniProt Q8VNN2); conditions: CXCR6 beta-arrestin (DiscoveRx) antagonist cell assay, b-galactosidase
# [3] = molecular target: C-C chemokine receptor type 6 (Homo sapiens) (UniProt P51684); conditions: CXCR6 beta-arrestin (DiscoveRx) antagonist cell assay
# [4] = molecular target: C-X-C chemokine receptor type 6 (Homo sapiens) (UniProt O00574); conditions: CXCR6 beta-arrestin (DiscoveRx) antagonist cell assay; for inhibition: CXCR6, run 1, dose range 2, at 80 µM (top of the series)
# [5] = dose range 1, mean IC50 across replicates
# [6] = CCR6, dose range 1, mean IC50 across replicates
# [7] = CXCR6, dose range 1, mean IC50 across replicates
# Sequence of C-X-C chemokine receptor type 6 (Homo sapiens) (O00574 whole entry, looked up): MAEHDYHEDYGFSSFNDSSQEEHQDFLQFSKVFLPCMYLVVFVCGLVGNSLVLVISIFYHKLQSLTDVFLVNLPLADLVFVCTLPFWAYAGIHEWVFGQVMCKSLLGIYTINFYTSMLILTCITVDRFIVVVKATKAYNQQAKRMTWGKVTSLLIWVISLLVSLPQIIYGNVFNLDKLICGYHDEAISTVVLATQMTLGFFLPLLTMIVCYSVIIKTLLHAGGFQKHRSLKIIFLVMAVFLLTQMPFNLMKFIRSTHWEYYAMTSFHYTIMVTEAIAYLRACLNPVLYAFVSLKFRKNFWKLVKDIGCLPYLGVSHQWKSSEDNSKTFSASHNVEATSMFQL
# Sequence of Beta-galactosidase (Escherichia coli) (Q8VNN2 whole entry, looked up): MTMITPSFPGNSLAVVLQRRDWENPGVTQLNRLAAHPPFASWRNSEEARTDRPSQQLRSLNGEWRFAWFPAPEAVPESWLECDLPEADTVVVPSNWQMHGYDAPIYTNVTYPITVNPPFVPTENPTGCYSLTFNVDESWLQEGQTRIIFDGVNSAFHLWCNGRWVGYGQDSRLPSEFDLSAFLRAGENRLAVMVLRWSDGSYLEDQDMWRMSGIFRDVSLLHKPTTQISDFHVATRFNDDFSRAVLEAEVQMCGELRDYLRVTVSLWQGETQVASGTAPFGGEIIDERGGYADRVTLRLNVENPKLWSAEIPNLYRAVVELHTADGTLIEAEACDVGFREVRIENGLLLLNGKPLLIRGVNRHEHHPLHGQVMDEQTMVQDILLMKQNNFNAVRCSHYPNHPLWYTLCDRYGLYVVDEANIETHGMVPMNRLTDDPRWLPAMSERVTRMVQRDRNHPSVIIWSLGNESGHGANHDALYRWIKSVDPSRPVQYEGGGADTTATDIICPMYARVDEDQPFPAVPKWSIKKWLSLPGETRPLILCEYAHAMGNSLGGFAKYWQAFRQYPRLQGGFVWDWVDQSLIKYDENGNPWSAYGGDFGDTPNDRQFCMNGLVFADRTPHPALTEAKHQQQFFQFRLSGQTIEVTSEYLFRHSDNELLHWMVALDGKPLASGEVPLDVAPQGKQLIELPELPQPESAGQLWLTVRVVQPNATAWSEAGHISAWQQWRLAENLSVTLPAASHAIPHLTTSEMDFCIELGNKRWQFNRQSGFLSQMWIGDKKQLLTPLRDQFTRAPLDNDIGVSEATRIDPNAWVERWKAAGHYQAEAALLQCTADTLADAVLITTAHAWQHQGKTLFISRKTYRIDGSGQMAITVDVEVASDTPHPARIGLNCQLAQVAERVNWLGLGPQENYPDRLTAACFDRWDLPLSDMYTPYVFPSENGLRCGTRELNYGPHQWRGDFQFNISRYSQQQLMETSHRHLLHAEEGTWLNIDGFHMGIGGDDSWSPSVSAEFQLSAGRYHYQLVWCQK
SMILES,IC50 ([1]; dose range 1),"IC50 [1, 5] [µM]","IC50 ([1]; run 2, dose range 1) [µM]","IC50 ([1]; run 3, dose range 1) [µM]",IC50 ([2]; dose range 1),"IC50 [2, 5] [µM]","IC50 ([3]; CCR6, dose range 1) [µM]","IC50 [3, 6] [µM]","IC50 ([3]; CCR6, run 2, dose range 1) [µM]","IC50 ([4]; CXCR6, dose range 1)","IC50 [4, 7] [µM]","IC50 ([4]; CXCR6, run 1, dose range 2) [µM]","IC50 ([4]; CXCR6, run 2, dose range 1) [µM]","IC50 ([4]; CXCR6, run 2, dose range 2) [µM]",inhibition [4] [%]
Cc1[nH]n(-c2ccccc2)c(=S)c1C=NCCCN=Cc1c(C)[nH]n(-c2ccccc2)c1=S,2.44 µM,3.07,3.21,3.56,> 80 µM (inactive),> 80,0.999,1.43,1.86,1.92 µM,1.55,1.07,2.07,1.14,
COc1ccc(C(=O)/C(=C\c2ccco2)N2C=CC=CC2=C(C#N)C#N)cc1,6.33 µM,5.69,5.06,5.67,> 80 µM (inactive),> 80,3.27,3.72,4.17,4.73 µM,4.87,4.61,5.18,4.96,
O=Cc1s/c(=N\S(=O)(=O)c2ccccc2)n(CCCCl)c1Cl,6.78 µM,6.28,5.42,6.63,15.9 µM,15.9,2.79,3.11,3.43,4.95 µM,4.83,5.13,4.89,4.35,
CCc1ccccc1OCC(=O)Nc1nc(-c2cccnc2)cs1,8.5 µM,12.5,12,17,> 80 µM (inactive),> 80,6.24,6.97,7.7,inactive,11,7.82,16.8,8.73,
O=[N+]([O-])c1ccc(S(=O)(=O)c2ccccc2)nc1,,> 80,> 80,> 80,> 80 µM (inactive),> 80,,> 80,> 80,> 80 µM (inactive),> 80,,> 80,,19.8
CCOC(=O)CSc1cccc2cccnc12,4.5 µM,5.48,6.81,5.13,> 80 µM (inactive),> 80,4.64,5.27,5.89,7.12 µM,5.86,3.95,8.08,4.32,
CCOC(=O)c1c(SCCN2CCCCC2)n(-c2ccccc2)c(=S)n(-c2ccccc2)c1=O,5.99 µM,6.77,7.04,7.28,> 80 µM (inactive),> 80,4.56,5.9,7.23,11.1 µM,8.58,,6.03,,130
O=C1C(Cc2ccccc2)Nc2ncnc(N3CCN(c4ccccc4)CC3)c2N1Cc1ccc(Cl)cc1 (stereo unspecified),inactive,20.2,5.81,53.2,> 80 µM (inactive),> 80,3.28,2.67,2.06,2.01 µM,1.94,1.77,2.04,1.94,
CCCC(=O)OCCNc1cc(Sc2nccn2C)c2nonc2c1[N+](=O)[O-],8.29 µM,6.22,4.43,5.96,> 80 µM (inactive),> 80,4.87,4.62,4.38,4.86 µM,5.03,5.61,5.05,4.59,
COc1ccc(OC)c(NC(=O)c2nc(S(=O)(=O)Cc3ccccc3)ncc2Cl)c1,13.7 µM,12.6,11.4,> 80,> 80 µM (inactive),> 80,7.57,7.24,6.9,7.68 µM,8.6,8.96,8.78,8.98,
